#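 96-well plates; 48 h exposure; 5 concentrations. Endpoints by linear interpolation between flanking doses. Not reached: highest tested concentration assigned. The concentration for full growth arrest is given as TGI.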
# How the values were obtained:
# Test in all cases: DTP human tumour cell line panel, 48 h
# OVCAR-4 ovarian = system: OVCAR-4 ovarian
# HCT-116 colon = system: HCT-116 colon
# MCF7 breast = system: MCF7 breast
# MDA-MB-231 breast = system: MDA-MB-231 breast
# SN12C renal = system: SN12C renal
# SF-539 CNS = system: SF-539 CNS
# EKVX NSCLC = system: EKVX NSCLC
# ACHN renal = system: ACHN renal
# SW-620 colon = system: SW-620 colon
# CAKI-1 renal = system: CAKI-1 renal
# HCC-2998 colon = system: HCC-2998 colon
# TK-10 renal = system: TK-10 renal
# HOP-92 NSCLC = system: HOP-92 NSCLC
SMILES,TGI (OVCAR-4 ovarian) [µM],TGI (HCT-116 colon) [µM],TGI (MCF7 breast) [µM],TGI (MDA-MB-231 breast) [µM],TGI (SN12C renal) [µM],TGI (SF-539 CNS) [µM],TGI (EKVX NSCLC) [µM],TGI (ACHN renal) [µM],TGI (SW-620 colon) [µM],TGI (CAKI-1 renal) [µM],TGI (HCC-2998 colon) [µM],TGI (TK-10 renal) [µM],TGI (HOP-92 NSCLC) [µM]
CC1(c2sccc2Cl)CC(c2sccc2Cl)=C(C#N)C(=C(C#N)C#N)N1 (stereo not given),66.1,32.2,48.5,42.9,42.9,36.7,34,32.5,39,36.1,29.4,31.6,–
CC(=O)OC(CC1(C)C(C)CCC23COC(=O)C2=CCCC31)c1ccoc1 (stereo not given),> 100,61.6,–,–,71.8,62.5,97.6,> 100,66.8,–,57.1,–,52.5
CCOC(=O)C1SC(=Nc2ccc(OC)c(OC)c2)N=C1C (stereo not given),> 100,> 100,–,–,> 100,> 100,> 100,> 100,> 100,> 100,> 100,> 100,> 100
CCOC(=O)CC1COc2ccc3c(c21)OCO3 (stereo not given),> 100,> 100,–,–,> 100,> 100,> 100,> 100,> 100,–,> 100,> 100,> 100
CCOC(=O)CC(c1ccccc1)C(C)(C(=O)OCC)C(=O)OCC (stereo not given),> 100,> 100,> 100,> 100,> 100,> 100,> 100,> 100,> 100,> 100,> 100,> 100,–
O=C(O)/C(Cl)=C(\Cl)C(=O)c1ccccc1,> 100,> 100,–,–,> 100,> 100,> 100,> 100,> 100,> 100,> 100,> 100,> 100
C=CC(O)(CBr)CCC(Br)C(=C)C (stereo not given),> 10,> 10,> 10,> 10,> 10,> 10,> 10,> 10,> 10,> 10,> 10,> 10,–
O=C(Nc1ccc(Cl)cc1C(F)(F)F)C(=O)C1CCCS1(=O)=O (stereo not given),> 100,> 100,–,–,> 100,> 100,> 100,> 100,> 10,> 100,> 100,> 100,> 10
CCOC(=O)c1nc2ccc(C(F)(F)F)cc2nc1Nc1cc(OC)c(OC)c(OC)c1,–,> 100,> 100,> 100,> 100,> 100,> 100,> 100,> 100,–,> 100,> 100,> 100
N#CCc1c(-c2ccccc2)n(S(=O)(=O)c2ccccc2)c2ccccc12,> 100,> 100,–,–,–,> 100,–,> 100,> 100,> 100,> 100,> 100,> 100
CC(C)C(=O)N1Cc2cc(Cl)cc(Cl)c2OC(=O)c2ccccc21,74,> 100,–,–,> 100,35.4,67.2,72.9,94.9,64,60.3,> 100,62.7
CN(CC(=O)O)c1ncc2c(n1)C=CCC2,> 100,> 100,> 100,> 100,> 100,> 100,> 100,> 100,> 100,> 100,–,> 100,> 100
CCOC(=O)Cn1c2ccccc2c(=O)c2cc(C)c(C)c(C#N)c21,–,> 100,–,–,> 100,> 100,> 100,> 100,> 100,–,> 100,> 100,> 100
CC(O)C1(CNc2cc(Cl)nc(N)n2)CCCCC1 (stereo not given),> 100,> 100,> 100,> 100,> 100,> 100,> 100,> 100,> 100,> 100,–,> 100,> 100
COC(=O)C1CCC(=O)N1C(c1cc(OC)c(OC)c(OC)c1)c1cc(OC)c(OC)c(OC)c1 (stereo not given),–,> 100,> 100,> 100,> 100,> 100,> 100,> 100,> 100,–,–,> 100,> 100
S=C1NC2=C(COc3ccccc32)C(c2ccc(Cl)cc2)N1 (stereo not given),–,28.9,38.4,34,8.64,34.9,34.2,43.6,78.8,–,–,–,–
CC(=O)Oc1cc(S(=O)(=O)Nc2n[nH]c(Nc3ccc(C)cc3)n2)c(S)cc1Cl,> 100,> 100,–,> 100,> 100,> 100,> 100,> 100,> 100,> 100,–,> 100,> 100
CCc1c2c(cc3c1CC1(C3)Cc3cc4c(c(C(=O)OC)c3C1)CCCC4)CCCC2 (stereo not given),> 100,65.1,> 100,> 100,> 100,> 100,83.9,> 100,–,–,> 100,> 100,> 100
COc1cc(-c2nc3ccc(N4CCN(C)CC4)cc3[nH]2)c(OC)c2[nH]c(COC(C)=O)nc12,> 100,> 100,> 100,> 100,> 100,> 100,> 100,> 100,> 100,> 100,–,> 100,> 100
O=C(/C=C\c1cccc2ccccc12)c1ccc(F)cc1,36.9,26.8,–,–,32.3,41.4,35.2,30.8,20.4,35.3,35.8,37.4,39.8

SMILES,TGI (OVCAR-4 ovarian) [µM],TGI (HCT-116 colon) [µM],TGI (MCF7 breast) [µM],TGI (MDA-MB-231 breast) [µM],TGI (SN12C renal) [µM],TGI (SF-539 CNS) [µM],TGI (EKVX NSCLC) [µM],TGI (ACHN renal) [µM],TGI (SW-620 colon) [µM],TGI (CAKI-1 renal) [µM],TGI (HCC-2998 colon) [µM],TGI (TK-10 renal) [µM],TGI (HOP-92 NSCLC) [µM]
CC12C3C4C1C1C2C3C41CO (stereo not given),> 100,> 100,> 100,> 100,> 100,> 100,> 100,> 100,> 100,> 100,–,> 100,> 100
CCCCn1c(CSc2ccc(Cl)cc2)c(C(=O)OCC)c2cc(OC)c(Br)cc21,> 100,> 100,–,> 100,> 100,–,> 100,> 100,> 100,75.9,> 100,> 100,–
O=C1CSC(c2c[nH]c3ccccc23)N1c1ccc(Cl)cc1 (stereo not given),> 100,> 100,> 100,> 100,> 100,> 100,> 100,> 100,> 100,–,> 100,> 100,> 100
CCOC(=O)C(=O)C=P(c1ccccc1)(c1ccccc1)c1ccccc1,> 100,> 100,–,–,> 100,> 100,> 100,> 100,> 100,> 100,> 100,> 100,> 100
COc1cccc(C23CCCC(C2)NCC3Br)c1OC (stereo not given),> 100,> 100,57.3,> 100,> 100,–,> 100,73.8,> 100,> 100,–,> 100,> 100
C=CCNC(=S)N1CC(C)C(=O)Nc2cc(Cl)ccc21 (stereo not given),> 100,> 100,–,–,> 100,> 100,> 100,> 100,–,> 100,–,> 100,> 100
CC(=O)OCC1OC(n2ccc(=O)[nH]c2=O)C(OC(C)=O)C(OC(C)=O)C1OC(C)=O (stereo not given),> 100,> 100,–,–,> 100,–,> 100,> 100,> 100,> 100,> 100,> 100,> 100
COC(=O)c1cc(C(=O)OC)c(CC(=O)C(=O)NC2C3CC4CC(C3)CC2C4)nc1CC(=O)C(=O)NC1C2CC3CC(C2)CC1C3 (stereo not given),> 100,> 100,–,–,> 100,> 100,> 100,> 100,> 100,> 100,> 100,> 100,> 100
O=C/C1=C/C2=Cc3ccccc3C=C(/C=C(/C=O)C1)C2,> 100,48.3,–,–,> 100,> 100,> 100,> 100,> 100,> 100,> 100,> 100,87.9
COc1ccc(C2=NN(c3ccccc3)C[N+](c3ccc(C)cc3)=N2)cc1,43.3,> 100,–,–,> 100,–,> 100,> 100,64.4,–,> 100,> 100,–
COc1ccc(/C=C/C(=O)/C=C/c2ccc(OC)cc2OC)c(OC)c1,46.3,21.3,–,78.5,65.2,36.7,33.3,21.8,83.6,23.4,13.3,47.3,67.5
C1CSCCSCCCSC2CCCCC2SC1 (stereo not given),> 100,> 100,> 100,> 100,> 100,> 100,> 100,–,> 100,–,> 100,> 100,> 100
Clc1cc2nn(C3CCCCO3)nc2cc1Cl (stereo not given),> 100,> 100,> 100,> 100,> 100,> 100,> 100,> 100,–,> 100,> 100,> 100,–
CNC(=O)NCNC(=O)NC,> 100,> 100,–,–,–,> 100,> 100,–,> 100,> 100,> 100,> 100,> 100
COc1c(C)cc2c(C(C)C)c(O)c(O)c(C=O)c2c1O,63.9,52,–,–,75.8,37.6,95.1,93,> 100,–,> 100,> 100,> 100
COc1cc(C2C3=C(COC3=O)Oc3cc4c(cc32)OCO4)ccc1O (stereo not given),> 75.3,> 48.3,> 100,–,> 100,1.03,> 100,> 94.7,> 100,0.438,6.34,> 100,> 78.1
COc1cc2c(c(OC)c1OC)-c1ccc(SC)c(=O)cc1C(CC(=O)Oc1cccc([N+](=O)[O-])c1)C2 (stereo not given),> 100,3.72,–,–,> 76.9,1.32,> 100,> 100,> 100,> 100,0.849,> 100,> 100
CC1CN=C(NS(=O)(=O)c2cc(C(=O)Nc3ccc(Cl)cc3)c(Cl)cc2S)NN1 (stereo not given),> 100,> 100,> 100,> 100,> 100,81.8,> 100,> 100,> 100,> 100,49.1,> 100,–
S=C(NCCc1ccccn1)N/N=C/c1ccccn1,> 74.7,< 0.01,–,–,13.3,3.59,> 27.7,4.82,> 100,< 0.01,> 100,> 100,–
COc1ccc(/C=C2/CSCC3=C2NC(=S)NC3c2ccc(OC)c(OC)c2OC)c(OC)c1OC (stereo not given),74.4,60,> 100,59.4,71.8,49.5,> 100,52.5,91.6,92.2,77.9,75.5,–

# Source: PubChem BioAssay (NCI)
